Where two headings read alike, the source gives them in different places.
Tests used:
[1] = tested on: cellular pERK in NCI-H1975 cells (EGFR/L858R-T790M); assay: pERK Potency Assay; type: cell-based; conditions: Homo sapiens, 1 hour incubation, Western blot, read-out: IC50 value, cellular pERK level
Source text: The purpose of this assay is to measure the ability of test compounds to inhibit SOS1 function in cells. SOS1 activates RAS proteins by catalyzing the conversion of RAS-GDP to RAS-GTP in response to receptor tyrosine kinase activation. Activation of RAS induces a sequence of cellular signaling events that results in increased phosphorylation of ERK at Threonine 202 and Tyrosine 204 (pERK). The procedure described below measured the level of cellular pERK in response to test compounds in NCI-H1975 cells (EGFR/L858R-T790M).
NCI-H1975 cells were grown and maintained using media and procedures recommended by the ATCC. On the day prior to compound addition, cells were plated in 24-well cell culture plates (0.9 ml/well) and grown overnight in a 37° C., 5% CO2 incubator. Test compounds were prepared with 3-fold serial dilutions in DMSO, with a top concentration of 10 mM. On the day of the assay, 100 uL of each test compound diluted at 1:100 in media was added to each well of cell culture plate with final concentrations of the compound spanning 0.5 nM to 10 uM. After the compound was added, the cells were incubated for 1 hour at 37° C., 5% CO2. Following incubation, culture medium was removed, and the cells were washed once with phosphate buffered saline and lysed with lysis buffer (20 mM Tris-HCl, pH 7.5, 150 mM NaCl, 1 mM EDTA, 1 mM EGTA, 0.8% NP-40 plus 2× protease and phosphatase inhibitors). Cellular pERK level was determined using the Western blot analysis and quantified with Liqor software. Signal from Western blot was plotted and IC50 values were determined by fitting a 4-parameter sigmoidal concentration response model.

[2] = target: T1, protein-protein interaction between SOS1 and KRAS-G12D (Homo sapiens, UniProt Q07889); assay: HTRF Based Protein-Protein Interaction Assay; type: binding
T1 construct: The purified GST-SOS1 catalytic domain (residues 564-1049) was first diluted in assay buffer; made in house; host or cells: E. coli BL21 (DE3) for SOS1; E. coli BL21 carrying a BirA plasmid for KRAS-G12D
T1 sequence (Q07889 564-1049): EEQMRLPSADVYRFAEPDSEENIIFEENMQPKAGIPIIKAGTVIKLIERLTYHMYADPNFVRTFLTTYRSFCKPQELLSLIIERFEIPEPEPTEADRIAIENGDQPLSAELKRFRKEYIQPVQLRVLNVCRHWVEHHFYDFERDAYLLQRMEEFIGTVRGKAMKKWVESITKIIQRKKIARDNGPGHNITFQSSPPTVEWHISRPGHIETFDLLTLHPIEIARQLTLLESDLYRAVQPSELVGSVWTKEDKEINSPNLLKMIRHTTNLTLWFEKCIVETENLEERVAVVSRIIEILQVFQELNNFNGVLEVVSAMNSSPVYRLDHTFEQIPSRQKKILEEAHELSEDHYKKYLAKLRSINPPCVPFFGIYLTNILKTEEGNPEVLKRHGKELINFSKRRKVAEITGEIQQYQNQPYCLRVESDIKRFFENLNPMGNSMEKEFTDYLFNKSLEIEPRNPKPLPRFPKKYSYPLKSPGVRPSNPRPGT
Source text: A KRAS-G12D and SOS1 binding/interaction assay was designed to measure the interaction between KRAS-G12D and SOS1 proteins. Utilizing HTRF (Homogeneous Time-Resolved Fluorescence) technology, the assay enabled simple and rapid characterization of compound and protein interaction in a high throughput format. This assay was used to examine potency of the compounds in inhibiting the protein-protein interaction between SOS1 and KRAS-G12D. […] Low IC50 values are indicative of high potency of the SOS1 inhibitor compound to disrupt SOS1 and Kras-G12D interaction.
Protein Expression and Purification. The corresponding gene sequence to human SOS1 (residues 564-1049, UniProt ID: Q07889; SEQ ID NO: 2) was synthesized and fused in frame with GST expression vector. After the desired sequence was confirmed, plasmid containing the sequence was transformed into the E. coli strain BL21 (DE3). Bacteria were growing at 37° C. in LB media containing 50 μg/ml Kanamycin to give OD600 of 0.6-0.8. Then 0.2 mM IPTG was added to induce protein expression for 16 hours at 17° C. Bacteria were harvested by centrifugation and stored at −80° C. Bacteria pellets were resuspended in lysis buffer (25 mM Tris-HCl, 500 mM NaCl, 2 mM DTT, 2.3% sucrose, 0.3% dextran-10, 1 mM PMSF, pH 7.5) and lysed using high-pressure homogenizer. The lysate was cleared by centrifugation for 30 minutes (12000 rpm at 4° C.). The supernatant containing GST-SOS1 fragment was purified sequentially through Glutathione column and gel filtration (Hiload 16/600 Superdex […] column, Cytiva). The purified GST-SOS1 fragment was confirmed by SDS-PAGE and stored in 25 mM Tris-HCl, 100 mM NaCl, 1 mM DTT, 2.3% sucrose, 0.3% dextran-10, pH 7.5 at −80° C.
Kras-G12D Protein Purification. The sequence corresponding to human KRAS-G12D (residues 1-169, UniProt P01116-2; SEQ ID NO: 1) was synthesized and fused in frame with His-AVI-TEV vector. The plasmid was transformed into the E. coli strain BL21 (containing a plasmid that can generate BirA enzyme). Bacteria were growing at 37° C. in TB media containing 100 μg/ml ampicillin and 50 μg/ml Kanamycin to give OD600 of 0.6-0.8. The 0.5 mM IPTG and 50 mg/l biotin were added to induce protein expression for 16 hours at 25° C. Bacteria were harvested by centrifugation and stored at −80° C. Bacteria pellets were re-suspended in lysis buffer (20 mM Tris-HCl, 500 mM NaCl, 5 mM MgCl2, 2 mM […], 5% glycerol, pH 8.0) and lysed using high-pressure homogenizer. The lysate was cleared by centrifugation for 30 minutes (12000 rpm at 4° C.). The supernatant containing HIS-AVI-TEV-KRAS-G12D fragment was purified sequentially through Ni-NTA column (SMART), Streptactin column (SMART), and gel filtration (Hiload 16/600 Superdex 75 pg, GE). The purified HIS-AVI-TEV-KRAS-G12D fragment was confirmed by SDS-PAGE and stored in 50 mM HEPES-NaOH, 100 mM NaCl, 1 mM DTT, 5 mM MgCl2, pH 7.5 at −80° C.
Protein-Protein Interaction Assay. An assay buffer containing 50 mM HEPES, pH 7.5, 50 mM NaCl, 0.01% Brij-35, 1 mM TCEP, 0.1% BSA was prepared, and concentration series of test compounds were generated spanning from 0.5 nM to 10 μM over 10 3-fold serial dilutions in a 384-well assay plate at a volume of 20 pL. The purified GST-SOS1 catalytic domain (residues 564-1049) was first diluted in assay buffer and 5 μl of SOS1 (final concentration 2.5 nM in assay mixture) was directly dispensed into compound plates. After a spin down at 1000 RPM for 30 seconds, the SOS1/compound mixture was incubated at 25° C. for 15 minutes to allow the reaction between SOS1 and the compound. A KRAS-G12D mixture was prepared by incubation of avi-tagged Kras-G12D (residue 1-169) and GDP in assay buffer containing 10 mM MgCl2 at room temperature for 10 minutes. A KRAS-G12D and GDP mixture (5 μL) was added to the assay plate (final KRAS-G12D was 100 nM and GDP was 10 uM). The plate was centrifuged at 1000 rpm for 30 sec and incubated at 25° C. for 60 minutes. […]

[3] = HTRF, GST-SOS1 2.5 nM, KRAS-G12D 100 nM, GDP 10 uM, read-out: IC50 value, inhibition of SOS1/KRAS-G12D protein-protein interaction

| Compound | IC50 [1] | IC50 [2, 3] | IC50 [2] |
| --- | --- | --- | --- |
| C#C[C@@H](Nc1ncnc2c1cc(C1(O)CC3CCC(C1)N3C(C)=O)c(=O)n2C)c1cccc(C(F)F)c1F (some centres unmarked) [Compound 63] | 100 to 500 nM |  |  |
| C#C[C@@H](Nc1ncnc2c1cc(C1(F)CCN(C(C)=O)C1)c(=O)n2C)c1cccc(C(F)F)c1F (stereo partly drawn) [Compound 45, 6-(1-acetyl-3-fluoropyrrolidin-3-yl)-4-{[(1R)-1-[3-(difluoromethyl)-2-fluorophenyl]prop-2-yn-1-yl]amino}-8-methyl-7H,8H-pyrido[2,3-d]pyrimidin-7-one] | < 100 nM | 100 to 200 nM |  |
| C#C[C@@H](Nc1ncnc2c1cc(C1(NC(C)=O)CC3CCC(C1)N3C(C)=O)c(=O)n2C)c1cccc(C(F)F)c1F (some centres unmarked) [Compound 64] | 100 to 500 nM |  |  |
| C#C[C@@H](Nc1ncnc2c1cc(C1=CC3CCC(C1)N3C(C)=O)c(=O)n2C)c1cccc(C(F)F)c1F (some centres unmarked) [Compound 65] | < 100 nM |  | < 100 nM |
| [2H]C([2H])([2H])n1c(=O)c(C2(F)CCN(C(C)=O)CC2)cc2c(N[C@H](C#C)c3cccc(C(F)(F)F)c3C)nc(C)nc21 [Compound 53] | < 100 nM | 100 to 200 nM |  |
| [2H]C([2H])([2H])n1c(=O)c(C2(OC)CCN(C(C)=O)CC2)cc2c(N[C@H](C#C)c3cccc(C(F)(F)F)c3C)nc(C)nc21 [Compound 50, 6-(1-acetyl-4-methoxypiperidin-4-yl)-8-(^2H3)methyl-2-methyl-4-{[(1R)-1-[2-methyl-3-(trifluoromethyl)phenyl]prop-2-yn-1-yl]amino}-7H,8H-pyrido[2,3-d]pyrimidin-7-one] | < 100 nM | 100 to 200 nM |  |
| [2H]C([2H])([2H])n1c(=O)c(C2(O)CCN(C(C)=O)CC2)cc2c(N[C@H](C#C)c3cccc(C(F)(F)F)c3C)nc(C)nc21 [Compound 51, 6-(1-acetyl-4-hydroxypiperidin-4-yl)-8-(^2H3)methyl-2-methyl-4-{[(1R)-1-[2-methyl-3-(trifluoromethyl)phenyl]prop-2-yn-1-yl]amino}-7H,8H-pyrido[2,3-d]pyrimidin-7-one] | < 100 nM | 100 to 200 nM |  |
| C#C[C@@H](Nc1nc(C)nc2cc(=O)n(C3(C(F)F)CC3)cc12)c1cccc(C(F)F)c1F [Compound 24, (R)-4-((1-(3-(difluoromethyl)-2-fluorophenyl)prop-2-yn-1-yl)amino)-6-(1-(difluoromethyl)cyclopropyl)-2-methylpyrido[4,3-d]pyrimidin-7(6H)-one] | 100 to 500 nM | < 100 nM |  |
| C#C[C@@H](Nc1nc(C)nc2cc(=O)n(C3(C(F)F)CC3)cc12)c1cccc(C(F)F)c1C [Compound 1, (R)-4-((1-(3-(difluoromethyl)-2-methylphenyl)prop-2-yn-1-yl)amino)-6-(1-(difluoromethyl)cyclopropyl)-2-methylpyrido[4,3-d]pyrimidin-7(6H)-one] | 100 to 500 nM | < 100 nM |  |
| [2H]C([2H])([2H])n1c(=O)c(C2=CCN(C(C)=O)CC2)cc2c(N[C@H](C#C)c3cccc(C(F)(F)F)c3C)nc(C)nc21 [Compound 52, 6-(1-acetyl-1,2,3,6-tetrahydropyridin-4-yl)-8-(^2H3)methyl-2-methyl-4-{[(1R)-1-[2-methyl-3-(trifluoromethyl)phenyl]prop-2-yn-1-yl]amino}-7H,8H-pyrido[2,3-d]pyrimidin-7-one] | 100 to 500 nM |  |  |
| C#C[C@@H](Nc1ncnc2c1cc(C1(NC(C)=O)CC3CCC(C1)O3)c(=O)n2C)c1cccc(C(F)F)c1F (stereo partly drawn) [Compound 61, N-(3(4-(((R)-1-3-(difluoromethyl)-2-fluorophenyl)prop-2-yn-1-yl)amino-8-methyl-7-oxo-7,8-dihydorpyrido[2,3-d]pyrimidin-6-yl)-8-oxabicyclo[3.2.1]octan-3-yl)acetamide] | 100 to 500 nM |  |  |
| C#C[C@@H](Nc1ncnc2c1cc(C1(N)CCOCC1)c(=O)n2C)c1cccc(C(F)(F)F)c1C [Compound 60] | < 100 nM |  |  |
| C#C[C@@H](Nc1ncnc2c1cc(C1=CC3CCC(C1)O3)c(=O)n2C)c1cccc(C(F)F)c1F (some centres unmarked) [Compound 62] | 100 to 500 nM |  |  |

Source: patent US20220324862A1, “PYRIDOPYRIMIDINONE COMPOUNDS” (Acerand Therapeutics (USA) Limited, priority 2021, published 2022)
